System: yeast genes (expressed mRNA)
Experiment: DNA chip measurement of expressed mRNA of yeast genes after culture with a toxic chemical substance
Type: cell-based, Saccharomyces cerevisiae S288C
Method in brief: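 Fluorescence ratio, treated over untreated, read by chip scanner; ratio of two or more counted significant. Cells: S288C yeast, YPD, 25° C, chemical added at log phase for 2 h at growth-inhibiting, sublethal level. Cy3/Cy5-labeled cDNA from oligo-dT-purified mRNA.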

## CN(C)C(=S)SSC(=S)N(C)C [(10), Tetramethylthiuram disulfide]
Yeast gene YFL010C, cultured two hours with substance
  The level of expressed mRNA in the presence of chemical substance/The level of expressed mRNA in the absence of chemical substance: 1.4
Yeast gene YFL024C, cultured two hours with substance
  The level of expressed mRNA in the presence of chemical substance/The level of expressed mRNA in the absence of chemical substance: 0.5
Yeast gene YFL032W, cultured two hours with substance
  The level of expressed mRNA in the presence of chemical substance/The level of expressed mRNA in the absence of chemical substance: 0.6
Yeast gene YFL056C
  The level of expressed mRNA in the presence of chemical substance/The level of expressed mRNA in the absence of chemical substance: 31.3
Yeast gene YFL056C, cultured for two hours with substance
  The level of expressed mRNA in the presence of chemical substance/The level of expressed mRNA in the absence of chemical substance: 31.3
Yeast gene YFL057C
  The level of expressed mRNA in the presence of chemical substance/The level of expressed mRNA in the absence of chemical substance: 46.1
Yeast gene YFL057C, cultured for two hours with substance
  The level of expressed mRNA in the presence of chemical substance/The level of expressed mRNA in the absence of chemical substance: 46.1
Yeast gene YGL037C, cultured two hours with substance
  The level of expressed mRNA in the presence of chemical substance/The level of expressed mRNA in the absence of chemical substance: 1.6
Yeast gene YGL046W, cultured two hours with substance
  The level of expressed mRNA in the presence of chemical substance/The level of expressed mRNA in the absence of chemical substance: 4.5
Yeast gene YGL047W, cultured two hours with substance
  The level of expressed mRNA in the presence of chemical substance/The level of expressed mRNA in the absence of chemical substance: 5.7
Yeast gene YGL053W, cultured two hours with substance
  The level of expressed mRNA in the presence of chemical substance/The level of expressed mRNA in the absence of chemical substance: 2.4
Yeast gene YGL121C, cultured two hours with substance
  The level of expressed mRNA in the presence of chemical substance/The level of expressed mRNA in the absence of chemical substance: 15.0
Yeast gene YGL136C, cultured two hours with substance
  The level of expressed mRNA in the presence of chemical substance/The level of expressed mRNA in the absence of chemical substance: 1.0
Yeast gene YGL184C
  The level of expressed mRNA in the presence of chemical substance/The level of expressed mRNA in the absence of chemical substance: 66.8
Yeast gene YGL193C, cultured two hours with substance
  The level of expressed mRNA in the presence of chemical substance/The level of expressed mRNA in the absence of chemical substance: 1.0
Yeast gene YGL199C, cultured two hours with substance
  The level of expressed mRNA in the presence of chemical substance/The level of expressed mRNA in the absence of chemical substance: 0.1
Yeast gene YGR101W, cultured two hours with substance
  The level of expressed mRNA in the presence of chemical substance/The level of expressed mRNA in the absence of chemical substance: 1.4
Yeast gene YGR110W, cultured two hours with substance
  The level of expressed mRNA in the presence of chemical substance/The level of expressed mRNA in the absence of chemical substance: 4.8
Yeast gene YGR130C, cultured two hours with substance
  The level of expressed mRNA in the presence of chemical substance/The level of expressed mRNA in the absence of chemical substance: 1.5
Yeast gene YGR142W, cultured two hours with substance
  The level of expressed mRNA in the presence of chemical substance/The level of expressed mRNA in the absence of chemical substance: 12.2
Yeast gene YGR154C, cultured two hours with substance
  The level of expressed mRNA in the presence of chemical substance/The level of expressed mRNA in the absence of chemical substance: 9.1
Yeast gene YGR213C
  The level of expressed mRNA in the presence of chemical substance/The level of expressed mRNA in the absence of chemical substance: 6.9
Yeast gene YGR221C, cultured two hours with substance
  The level of expressed mRNA in the presence of chemical substance/The level of expressed mRNA in the absence of chemical substance: 0.7
Yeast gene YHL040C (detoxification protein gene)
  The level of expressed mRNA in the presence of chemical substance/The level of expressed mRNA in the absence of chemical substance: 11.3
Yeast gene YHL040C (transport facilitation protein gene)
  The level of expressed mRNA in the presence of chemical substance/The level of expressed mRNA in the absence of chemical substance: 11.3
Yeast gene YHL047C (detoxification protein gene)
  The level of expressed mRNA in the presence of chemical substance/The level of expressed mRNA in the absence of chemical substance: 11.9
Yeast gene YHL047C (transport facilitation protein gene)
  The level of expressed mRNA in the presence of chemical substance/The level of expressed mRNA in the absence of chemical substance: 11.9
Yeast gene YHR029C, cultured two hours with substance
  The level of expressed mRNA in the presence of chemical substance/The level of expressed mRNA in the absence of chemical substance: 8.6
Yeast gene YHR071W
  The level of expressed mRNA in the presence of chemical substance/The level of expressed mRNA in the absence of chemical substance: 7.2
Yeast gene YHR116W, cultured two hours with substance
  The level of expressed mRNA in the presence of chemical substance/The level of expressed mRNA in the absence of chemical substance: 2.7
Yeast gene YHR138C, cultured two hours with substance
  The level of expressed mRNA in the presence of chemical substance/The level of expressed mRNA in the absence of chemical substance: 4.6
Yeast gene YHR139C
  The level of expressed mRNA in the presence of chemical substance/The level of expressed mRNA in the absence of chemical substance: 46.6
Yeast gene YHR199C, cultured two hours with substance
  The level of expressed mRNA in the presence of chemical substance/The level of expressed mRNA in the absence of chemical substance: 6.0
Yeast gene YIL023C, cultured two hours with substance
  The level of expressed mRNA in the presence of chemical substance/The level of expressed mRNA in the absence of chemical substance: 1.6
Yeast gene YIL024C, cultured two hours with substance
  The level of expressed mRNA in the presence of chemical substance/The level of expressed mRNA in the absence of chemical substance: 1.8
Yeast gene YIL041W, cultured two hours with substance
  The level of expressed mRNA in the presence of chemical substance/The level of expressed mRNA in the absence of chemical substance: 1.4
Yeast gene YIL087C, cultured two hours with substance
  The level of expressed mRNA in the presence of chemical substance/The level of expressed mRNA in the absence of chemical substance: 1.8
Yeast gene YIL102C, cultured two hours with the chemical substance
  The level of expressed mRNA in the presence of chemical substance/The level of expressed mRNA in the absence of chemical substance: 0.3
Yeast gene YIL117C, cultured two hours with substance
  The level of expressed mRNA in the presence of chemical substance/The level of expressed mRNA in the absence of chemical substance: 3.5
Yeast gene YIL167W
  The level of expressed mRNA in the presence of chemical substance/The level of expressed mRNA in the absence of chemical substance: 12.7
Yeast gene YIL168W
  The level of expressed mRNA in the presence of chemical substance/The level of expressed mRNA in the absence of chemical substance: 19.3
Yeast gene YIR038C (detoxification protein gene)
  The level of expressed mRNA in the presence of chemical substance/The level of expressed mRNA in the absence of chemical substance: 4.5
Yeast gene YJL020C, cultured two hours with substance
  The level of expressed mRNA in the presence of chemical substance/The level of expressed mRNA in the absence of chemical substance: 1.0
Yeast gene YJL057C, cultured two hours with substance
  The level of expressed mRNA in the presence of chemical substance/The level of expressed mRNA in the absence of chemical substance: 6.1
Yeast gene YJL066C, cultured two hours with substance
  The level of expressed mRNA in the presence of chemical substance/The level of expressed mRNA in the absence of chemical substance: 2.1
Yeast gene YJL082W, cultured two hours with substance
  The level of expressed mRNA in the presence of chemical substance/The level of expressed mRNA in the absence of chemical substance: 2.9
Yeast gene YJL100W, cultured two hours with the chemical substance
  The level of expressed mRNA in the presence of chemical substance/The level of expressed mRNA in the absence of chemical substance: 2.7
Yeast gene YJL108C, cultured two hours with substance
  The level of expressed mRNA in the presence of chemical substance/The level of expressed mRNA in the absence of chemical substance: 0.7
Yeast gene YJL149W, cultured two hours with substance
  The level of expressed mRNA in the presence of chemical substance/The level of expressed mRNA in the absence of chemical substance: 3.8
Yeast gene YJL151C, cultured two hours with substance
  The level of expressed mRNA in the presence of chemical substance/The level of expressed mRNA in the absence of chemical substance: 1.6

Reference: US20100041089A1, “IMPROVED METHOD FOR DETECTING CHEMICAL […]” (priority 2006, published 2010)
